From ChEMBL document CHEMBL5316357, “Discovery of Linvencorvir (RG7907), a Hepatitis B Virus Core Protein Allosteric Modulator, for the Treatment of Chronic HBV Infection” (J Med Chem, 2023)

Tests used:
[1] = system: Hepatitis B virus; assay: Antiviral activity against HBV stably transfected in human HepG2.2.15 cells assessed as reduction of HBV DNA replication incubated for 5 days by q-PCR analysis; format: functional, organism-based; details: HepG2 2.2.15, 120 h
[2] = Cytotoxicity against human HepDE19 cells assessed as reduction in cell viability incubated for 5 days by CCK-8 assay; format: functional; details: HepDE19, 120 h, time 5 day
[3] = Induction of CYP3A4 mRNA expression level in human hepatocytes at 10 uM incubated for 24 hrs by q-PCR analysis; format: ADME, cell-based, Hepatocyte
[4] = Clearance in human liver microsomes at 1 uM measured upto 30 mins in presence of NADPH by LC-MS/MS analysis; format: ADME, Microsome
[5] = Octanol-water partition coefficient, logD of the compound at pH 7.4; format: physicochemical
[6] = AUC (0-infinity) in rat plasma at 3 mg/kg,po; format: ADME, organism-based; parameters: dose 3 mg/kg, route po; details: in vivo
[7] = Clearance in human hepatocyte at 2 uM measured upto 120 mins by LC-MS/MS analysis; format: ADME, cell-based; details: hepatocytes
[8] = Oral bioavailability in rat plasma at 3 mg/kg; format: ADME, organism-based; details: in vivo, po, 3 mg/kg
[9] = Clearance in rat hepatocyte at 2 uM measured upto 120 mins by LC-MS/MS analysis; format: ADME, cell-based; details: hepatocytes
[10] = target: hERG (Homo sapiens, UniProt Q12809); assay: (§1) Inhibition of hERG stably expressed in CHO cells by whole-cell voltage-clamp assay; format: toxicity, cell-based; details: human, CHO cells stably expressing hERG
[11] = target: Voltage-gated inwardly rectifying potassium channel KCNH2 (Homo sapiens, UniProt Q12809); assay: as §1; format: toxicity, cell-based
[12] = AUC (0-infinity) in mouse plasma at 1 mg/kg,iv; format: ADME, organism-based; parameters: dose 1 mg/kg, route iv; details: in vivo
[13] = Clearance in mouse plasma at 1 mg/kg,iv; format: ADME, organism-based
[14] = Volume of distribution at steady state in mouse plasma at 1 mg/kg,iv; format: ADME, organism-based; details: read-out: Vdss
[15] = AUC (0-infinity) in mouse plasma at 3 mg/kg,po; format: ADME, organism-based; parameters: dose 3 mg/kg, route po; details: in vivo
[16] = Oral bioavailability in mouse plasma at 3 mg/kg; format: ADME, organism-based; details: in vivo
[17] = Half life in mouse plasma at 1 mg/kg,iv; format: ADME, organism-based

Chain of Voltage-gated inwardly rectifying potassium channel KCNH2 (Q12809 whole entry): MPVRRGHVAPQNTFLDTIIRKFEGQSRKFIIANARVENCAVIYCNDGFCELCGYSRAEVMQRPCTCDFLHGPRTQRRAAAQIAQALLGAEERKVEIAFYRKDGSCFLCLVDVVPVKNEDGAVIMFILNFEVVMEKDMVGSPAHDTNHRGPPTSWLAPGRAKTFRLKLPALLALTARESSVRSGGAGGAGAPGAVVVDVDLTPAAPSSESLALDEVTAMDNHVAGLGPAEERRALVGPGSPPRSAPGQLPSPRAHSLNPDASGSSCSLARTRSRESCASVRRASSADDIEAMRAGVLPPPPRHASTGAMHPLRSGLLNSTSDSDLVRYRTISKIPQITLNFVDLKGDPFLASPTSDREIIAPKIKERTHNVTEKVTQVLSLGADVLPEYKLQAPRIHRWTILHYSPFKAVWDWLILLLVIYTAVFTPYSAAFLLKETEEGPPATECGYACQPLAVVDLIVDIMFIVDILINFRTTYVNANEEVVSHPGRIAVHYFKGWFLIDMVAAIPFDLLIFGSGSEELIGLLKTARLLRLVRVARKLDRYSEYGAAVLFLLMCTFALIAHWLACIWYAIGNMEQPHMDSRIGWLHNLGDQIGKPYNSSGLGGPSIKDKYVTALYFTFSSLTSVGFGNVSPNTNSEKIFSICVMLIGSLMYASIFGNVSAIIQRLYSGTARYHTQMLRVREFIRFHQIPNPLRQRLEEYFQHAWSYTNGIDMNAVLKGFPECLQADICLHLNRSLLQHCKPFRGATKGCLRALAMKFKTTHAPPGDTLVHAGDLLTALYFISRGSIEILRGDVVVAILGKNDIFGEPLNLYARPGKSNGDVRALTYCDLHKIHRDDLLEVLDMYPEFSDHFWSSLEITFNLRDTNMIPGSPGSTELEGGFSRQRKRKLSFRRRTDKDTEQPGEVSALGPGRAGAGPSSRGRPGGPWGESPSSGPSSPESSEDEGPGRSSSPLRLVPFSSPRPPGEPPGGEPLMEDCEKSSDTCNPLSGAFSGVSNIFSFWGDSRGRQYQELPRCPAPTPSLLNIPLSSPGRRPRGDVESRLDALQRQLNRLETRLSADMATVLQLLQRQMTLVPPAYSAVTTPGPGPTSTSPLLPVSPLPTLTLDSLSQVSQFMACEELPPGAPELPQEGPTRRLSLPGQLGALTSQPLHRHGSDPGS
Chain of hERG (Q12809 whole entry): as above

SMILES | EC50 [1] [nM] | Activity [3] [%] | CLhep predicted at 1 µM [4] [mL/min/kg] | CC50 [2] [nM] | also measured
CCOC(=O)C1=C(CN2C[C@H]3CN(C)C(=O)N3C[C@H]2C(=O)O)NC(c2nccs2)=N[C@H]1c1cccc(F)c1Cl | 150 |  |  | > 100000 | 
COC(=O)C1=C(CN2CCc3c([nH][nH]c3=O)C2)NC(c2nccs2)=N[C@H]1c1ccc(F)cc1Cl | 750 | 13 |  | > 100000 | 
COC(=O)C1=C(CN2CCN3C(=O)NC[C@H]3C2)NC(c2nccs2)=N[C@H]1c1ccc(F)cc1Cl | 150 |  |  | 89000 | 
COC(=O)C1=C(CN2CCN3C(=O)OC[C@H]3C2)NC(c2nccs2)=N[C@H]1c1ccc(F)cc1Cl | 23 |  |  | 76000 | 
COC(=O)C1=C(CN2CCN3C(=O)NC[C@@H]3C2)NC(c2nccs2)=N[C@H]1c1ccc(F)cc1Cl | 2 | 17 |  | 52000 | 
COC(=O)C1=C(CN2CCN3C(=O)OCCC3C2)NC(c2nccs2)=N[C@H]1c1ccc(F)cc1Cl (stereo partly specified) | 100 |  |  | 62000 | 
CCOC(=O)C1=C(CN2C[C@H]3CN(C4CC4)C(=O)N3C[C@@H]2C(=O)O)NC(c2nccs2)=N[C@H]1c1ccc(F)cc1Cl | 2 | 6 | 2.7 | > 100000 | IC20 [10]: > 10000 nM; IC50 [11]: > 20000 nM
COC(=O)C1=C(CN2CCN3C(=O)N(C4CCC(C(=O)O)CC4)C[C@@H]3C2)NC(c2nccs2)=N[C@H]1c1ccc(F)cc1Cl (stereo partly specified) | 9 | 0 | 8.1 | 70000 | IC20 [10]: > 10000 nM; IC50 [11]: > 20000 nM
COC(=O)C1=C(CN2CCN3CCCC3C2)NC(c2nccs2)=N[C@H]1c1ccc(F)cc1Cl (stereo partly specified) | > 1000 |  |  |  | 
CCOC(=O)C1=C(CN2CCN3C(=O)N(c4ccccc4C(=O)O)C[C@@H]3C2)NC(c2nccs2)=N[C@H]1c1ccc(F)cc1Cl (single isomer, unassigned) | 30 |  | 4.4 |  | 
COC(=O)C1=C(CN2CCN3C(=O)N([C@H]4CC[C@H](C(=O)O)CC4)C[C@@H]3C2)NC(c2nccs2)=N[C@H]1c1ccc(F)cc1Cl | 9 |  | 5.2 | 43000 | 
COC(=O)C1=C(CN2CCN(C(C)=O)CC2)NC(c2nccs2)=N[C@H]1c1ccc(F)cc1Cl | 50 |  |  | > 100000 | 
CCOC(=O)C1=C(CN2C[C@H]3CN(C(C)(C)C)C(=O)N3C[C@H]2C(=O)O)NC(c2nccs2)=N[C@H]1c1ccc(F)cc1Cl | 62 |  |  | > 100000 | 
CCOC(=O)C1=C(CN2C[C@H]3CN(C)C(=O)N3C[C@@H]2C(=O)O)NC(c2nccs2)=N[C@H]1c1cccc(F)c1Cl | 2 | 1.7 | 5.8 | > 100000 | IC20 [10]: > 10000 nM; IC50 [11]: > 20000 nM
COC(=O)C1=C(CN2CCN3C(=O)OC[C@@H]3C2)NC(c2nccs2)=N[C@H]1c1ccc(F)cc1Cl | 3 | 70 |  | 79000 | 
CCOC(=O)C1=C(CN2CCN3C(=O)N(c4ccc(C(=O)O)cc4)C[C@@H]3C2)NC(c2nccs2)=N[C@H]1c1ccc(F)cc1Cl (single isomer, unassigned) | 2 |  |  | 28000 | 
COC(=O)C1=C(CN2CCN3C(=O)COCC3C2)NC(c2nccs2)=N[C@H]1c1ccc(F)cc1Cl (stereo partly specified) | 55 |  |  | 68000 | 
CCOC(=O)C1=C(CN2C[C@H]3CN(C4CC4)C(=O)N3C[C@H]2C(=O)O)NC(c2nccs2)=N[C@H]1c1ccc(F)cc1Cl | 145 |  | 1.7 | > 100000 | 
COC(=O)C1=C(CN2CCOC[C@H]2C(=O)O)N=C(c2nccs2)N[C@H]1c1ccc(F)cc1Cl | 3 | 110 |  | > 100000 | 

Further lines, with some results ahead:

EC50 [1] [nM] | Activity [3] [%] | CLhep predicted at 1 µM [4] [mL/min/kg] | SMILES | CC50 [2] [nM] | also measured
8 | 0 | 4.6 | COC(=O)C1=C(CN2CCN3C(=O)N(CCC(C)(C)C(=O)O)C[C@@H]3C2)NC(c2nccs2)=N[C@H]1c1ccc(F)cc1Cl | > 100000 | 
6 | 0.6 | 2 | COC(=O)C1=C(CN2CCN3C(=O)N(CC(C)(C)C(=O)O)C[C@@H]3C2)NC(c2nccs2)=N[C@H]1c1ccc(F)cc1Cl | > 100000 | logD [5]: 1.18; AUC [6]: 26 ng·h/mL; CLhep predicted at 2 µM [7]: 9.2 mL/min/kg; F [8]: 7.1%; CLhep predicted at 2 µM [9]: 14 mL/min/kg; IC20 [10]: > 10000 nM; IC50 [11]: > 20000 nM
30 |  | 0.4 | COC(=O)C1=C(CN2CCN3C(=O)N([C@H]4C[C@@H](C(=O)O)C4)C[C@@H]3C2)NC(c2nccs2)=N[C@H]1c1ccc(F)cc1Cl | > 100000 | 
34 |  |  | COC(=O)C1=C(CN2CCN3C(=O)N([C@H]4C[C@H](C(=O)O)C4)C[C@@H]3C2)NC(c2nccs2)=N[C@H]1c1ccc(F)cc1Cl | 43000 | 
16 | 2.4 | 2.7 | CCOC(=O)C1=C(CN2CCN3C(=O)N(CC(C)C(=O)O)C[C@@H]3C2)NC(c2nccs2)=N[C@H]1c1ccc(F)cc1Cl (stereo partly specified) | > 100000 | IC20 [10]: > 10000 nM; IC50 [11]: > 20000 nM
2 |  | 0.43 | COC(=O)C1=C(CN2CCN3C(=O)N(c4ccc(C(=O)O)cc4)C[C@@H]3C2)NC(c2nccs2)=N[C@H]1c1ccc(F)cc1Cl (single isomer, unassigned) |  | IC20 [10]: 4000 nM; IC50 [11]: > 10000 nM
30 |  | 2.5 | COC(=O)C1=C(CN2CCN3C(=O)N(C(C)(C)CC(=O)O)C[C@@H]3C2)NC(c2nccs2)=N[C@H]1c1ccc(F)cc1Cl | > 100000 | 
14 |  |  | COC(=O)C1=C(CN2CCN3C(=O)N(CC(C)(C)C(=O)O)C[C@@H]3C2)NC(c2nccs2)=N[C@H]1c1cccc(F)c1Cl | > 100000 | logD [5]: 1.21
16 |  |  | COC(=O)C1=C(CN2CCN3C(=O)N(CC(C)(C)C(=O)O)C[C@@H]3C2)NC(c2nccs2)=N[C@H]1c1cccc(F)c1C | > 100000 | logD [5]: 1.26
3 |  |  | CCOC(=O)C1=C(CN2CCN3C(=O)N(CC(C)(C)C(=O)O)C[C@@H]3C2)NC(c2nccs2)=N[C@H]1c1ccc(F)c(F)c1C | > 100000 | logD [5]: 2; AUC [6]: 43 ng·h/mL; F [8]: 7.4%
7 |  | 0.3 | COC(=O)C1=C(CN2CCN3C(=O)N(c4cccc(C(=O)O)c4)C[C@@H]3C2)NC(c2nccs2)=N[C@H]1c1ccc(F)cc1Cl (single isomer, unassigned) | 33000 | 
11 |  | 0.3 | COC(=O)C1=C(CN2CCN3C(=O)N(CC4(C(=O)O)CC4)C[C@@H]3C2)NC(c2nccs2)=N[C@H]1c1ccc(F)cc1Cl | > 100000 | IC20 [10]: 2300 nM; IC50 [11]: 7800 nM
14 | 44 |  | COC(=O)C1=C(CN2CCN3C(=O)CC[C@@H]3C2)NC(c2nccs2)=N[C@H]1c1ccc(F)cc1Cl | 45000 | 
200 |  | 1.6 | CCOC(=O)C1=C(CN2CCN3C(=O)N(C(C)(C)C(=O)O)C[C@@H]3C2)NC(c2nccs2)=N[C@H]1c1ccc(F)cc1Cl | 61000 | 
6 |  |  | COC(=O)C1=C(CN2CCN3C(=O)N(CC(C)(C)C(=O)O)C[C@@H]3C2)NC(c2nccs2)=N[C@H]1c1ccc(F)c(F)c1C | 94000 | logD [5]: 1.51; AUC [6]: 43 ng·h/mL; CLhep predicted at 2 µM [7]: 2.4 mL/min/kg; F [8]: 14%; CLhep predicted at 2 µM [9]: 16 mL/min/kg
11 | 2.2 | 2.3 | COC(=O)C1=C(CN2CCN3C(=O)N(CC4(C(=O)O)CCC4)C[C@@H]3C2)NC(c2nccs2)=N[C@H]1c1ccc(F)cc1Cl | > 100000 | IC20 [10]: 7200 nM; IC50 [11]: > 20000 nM
9 |  |  | CCOC(=O)C1=C(CN2CCN3C(=O)N(CC(C)(C)C(=O)O)C[C@@H]3C2)NC(c2nccs2)=N[C@H]1c1ccc(F)cc1Cl | 77000 | AUC [12]: 323 ng·h/mL; clearance [13]: 58 mL/min/kg; Vd [14]: 2.2 L/kg; AUC [15]: 38 ng·h/mL; logD [5]: 1.67; AUC [6]: 70 ng·h/mL; CLhep predicted at 2 µM [7]: 0.6 mL/min/kg; F [8]: 15.6%; CLhep predicted at 2 µM [9]: 22 mL/min/kg; F [16]: 12%; half-life [17]: 54 min
160 |  |  | COC(=O)C1=C(CN2CCN3C(=O)CC[C@H]3C2)NC(c2nccs2)=N[C@H]1c1ccc(F)cc1Cl | 71000 | 
